Like-named read-outs stand apart in the source and are kept apart here.
Columns and labels:
T47D = test: Inhibition of mammary carcinoma cell line T47D; format: cell-based; details: Table 5, human, ERα+, HER2−
Protocol: (§1) 3-(4,5-Dimethylthiazol-2-yl)-2,5-diphenyltetrazolium Bromide (MTT) Cell Proliferation Assay. To cells grown in 96-well-tissue culture plate, 20 μl/well of MTT solution (5 mg/ml in PBS) was added. After 1-2 hours incubation at 37° C., the plate was centrifuged. Supernatant was discarded and 100 μl DMSO was added to dissolve water insoluble formazan, and the absorbance was read at 540 nm with a plate reader.

MCF-7 tumors = details: background statement; cited from earlier work
breast cancer cell lines = details: background statement; read-out: IC50, growth of breast cancer cell lines; cited from earlier work
EO771 [1] = test: Inhibition of mammary carcinoma cell line EO771; format: cell-based, mouse (C57BL/6); details: Mus musculus; Table 5; EO771, C57BL/6, Basal, HER2−
Protocol: as §1

CYP2C8 = molecular target: T1, CYP2C8 (Homo sapiens, UniProt P10632); test: CYP2C8-mediated arachidonic acid epoxygenase EET biosynthesis; format: biochemical
T1 construct: purchased Corning; host or cells: insect cells (microsomes)
T1 sequence (P10632 1-490): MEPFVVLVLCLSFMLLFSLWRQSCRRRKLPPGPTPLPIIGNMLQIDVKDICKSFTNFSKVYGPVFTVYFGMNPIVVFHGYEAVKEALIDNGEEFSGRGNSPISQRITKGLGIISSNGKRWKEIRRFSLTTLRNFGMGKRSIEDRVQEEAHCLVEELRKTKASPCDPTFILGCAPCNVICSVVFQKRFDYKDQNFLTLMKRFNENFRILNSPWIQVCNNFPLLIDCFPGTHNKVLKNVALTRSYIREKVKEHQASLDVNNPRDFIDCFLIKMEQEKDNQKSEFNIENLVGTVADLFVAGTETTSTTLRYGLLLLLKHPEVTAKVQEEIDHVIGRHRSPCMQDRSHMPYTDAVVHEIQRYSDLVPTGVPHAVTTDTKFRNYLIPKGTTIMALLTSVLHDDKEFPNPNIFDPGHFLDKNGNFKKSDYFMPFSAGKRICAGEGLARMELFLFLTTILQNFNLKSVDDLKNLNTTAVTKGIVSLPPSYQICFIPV
Protocol: Recombinant Microsomal CYP-mediated EET Biosynthesis. CYP Supersomes™ (Corning, NY) (1 μM, final concentration) were incubated at 37° C. for 30 min in the presence of AA (120 μM) in 50 μl potassium phosphate buffer, (50 mM, pH 7.4), containing 1 mM EDTA and 1 mM NADPH. Reactions were terminated by addition of 50 μL of acetonitrile spiked with ^13C-EET internal standards followed by vigorous vortexing. After centrifugation at 16,000×rpm for 10 minutes to precipitate proteins and other insoluble debris and 80 μL supernatant was transferred into HPLC vials and analyzed by with an LC-ESI/MRM/MS method.
LC-ESI/MRM/MS Method for EET Measurement. EETs were measured by an LC-ESI/MRM/MS analytical method on a ThermoFisher Vantage triple quadrupole mass spectrometer (ThermoFisher, San Jose, CA) coupled with an UltiMate 3000 HPLC (ThermoFisher, San Jose, CA), using argon as the collision gas. Negative ion monitoring was performed at the following diagnostic product ions: 319 m/z→155 m/z for 8,9-EET; 319 m/z→179 m/z for 11,12-EET; 319 m/z→219 m/z for 14,15-EET; 339 m/z→163 m/z for 8,9-[^13C-20]EET; 339 m/z→233 m/z for 11,12-[^13C-20]EET; and 339 m/z→259 m/z for 14,15-[^13C-20]EET. Base-line resolution of EET regioisomers was achieved on a Phenomenex Luna C18 (2) reverse phase capillary column (250×0.5 mm, 5-μm particles) using the following mobile phase combinations: isocratic 5% B for 5 min, gradient 5-70% B for 5 min, hold at 70% for 30 min and then 95% for 10 min; A: 0.01% acetic acid in water, B: 0.01% acetic acid in acetonitrile; 10 μl/min flow rate. A standard curve was obtained by linear regression of the peak area ratio of authentic EET regioisomers against internal standards. The amount of EETs in samples was calculated according to the standard curve.

EO771 [2] = test: Oxygen consumption rate (OCR), EO771; format: cell-based, mouse (C57BL/6)
Protocol: (§2) Measurement of oxygen consumption rate (OCR). Cells were maintained in growth medium consisting of 10% FBS at 37° C. with 5% CO2 and seeded at 25,000 cells per well in a 96-well XF96 cell culture microplates (Agilent, Santa Clara, CA). An 96 well XF sensor cartridge was hydrated and equilibrated with 200 ul calibrant in each well at 37° C. without CO2 overnight. Growth media was replaced with 150 μL DMEM based assay media (a non-buffered medium including 2 mM L-glutamine but no sodium bicarbonate (buffering agent), glucose, or sodium pyruvate, Agilent, Santa Clara, CA) the next day and cells were incubated CO2 free for 1 hour before the measurement of OCR by a Seahorse XFe Extracellular Flux Analyzer (Agilent, Santa Clara, CA), which measures uptake and excretion of metabolic end products in real time. After baseline measurements, 20 μl assay medium containing control vehicle or drugs were injected into corresponding wells. OCRs were measured periodically and can be reported in pmoles/minute or normalized against baseline measurements before treatment.

mm006 = test: Oxygen consumption rate (OCR), mm006; format: cell-based, mouse (C57BL/6)
Protocol: as §2

| Compound | IC50 (T47D) | growth of the MCF-7 ER+ mammary tumor model (MCF-7 tumors) | IC50 (breast cancer cell lines) | IC50 (EO771 [1]) | IC50 (CYP2C8; (±)8,9-EET, read-out: IC50, CYP2C8 biosynthesis of (±)8,9-EET) | IC50 (CYP2C8; (±)11,12-EET, read-out: IC50, CYP2C8 biosynthesis of (±)11,12-EET) | fold lower inhibition of CYP2C8 (vs CYP3A4) (CYP2C8; (±)14,15-EET biosynthesis) | IC50 (CYP2C8; (±)14,15-EET, read-out: inhibition of CYP2C8-mediated biosynthesis of (±)14,15-EET) | OCR Inhibition [HCB] (uM) v vs. control (P < 0.05) (EO771 [2]) | OCR Inhibition [HCB] (uM) v vs. control (P < 0.05) (mm006) |
| --- | --- | --- | --- | --- | --- | --- | --- | --- | --- | --- |
| CCCCCCNC(=N)NC(=N)NCc1ccccc1 [HBB, N1-hexyl-N5-benzyl-biguanide] | 22 µM | inhibits growth | 3 to 30 µM | 21.7 µM | – | – | – | – | – | – |
| CCCCCCNC(=N)NC(=N)NCC12C3C4C5C3C1C5C42 (stereo not shown) [HCB, Hexyl Cubanomethyl Biguanide] | – | – | – | – | 31 µM | 52 µM | 10 fold | 42 µM | 20 µM | 20 µM |
